Measurements from US11357737B2, “Chitosan nanofibers containing bioactive compounds” (FUNDACION COPEC UNIVERSIDAD CATÓLICA, priority 2015, dated 2022).

Columns and labels:
in vitro = settings: rat
Text: Brains were used from 18-day rat embryos. The extracted hippocampi were placed in modified Hanks saline solution (mHBSS, for its name in English: Hank's buffer salt solution) and washed three times to then add trypsin (0.25%). After this treatment, the hippocampi were washed with mHBSS and transferred to a MEM medium (Minimum Essential Medium) supplemented with 10% horse serum (HS), disintegrating with Pasteur pipette. The cell suspension was collected by low speed centrifugation (2000×g×20 s) at room temperature. The supernatant was saved and the pellet was broken up again with a very fine tip Pasteur pipette. Another centrifugation was performed at low speed (2000×g×20 s) at room temperature. The supernatant containing the cells in suspension was pooled with the above supernatant and the viable cells were counted using Trypan blue (0.2%). Subsequently, the neurons were seeded in culture plates in MEM supplemented with 10% HS. After the hippocampal neurons adhered to the plaque, they were exchanged for medium with a Neurobasal medium with the culture supplement B27, remaining in culture for fourteen days.
Initially, the percentage of cellular viability of said hippocampal neurons exposed to different concentrations of hydrogen peroxide was evaluated. (10, 50, 100, 200, 500 μM) during 1 h. Hydrogen peroxide (H2O2) under biological conditions, it is a highly oxidizing compound.

[1] = Neuroprotection against oxidative damage by H2O2 in hippocampal cultures (neuronal viability); assay type: cell-based; settings: rat, primary hippocampal neurons from 18-day rat embryos; 50 μM H2O2 for 1 h, vehicle pre-incubation, 24 h after exposure; read-out: cell viability in the control condition (vehicle) after H2O2
Method: Brains were used from 18-day rat embryos.
The hippocampal neurons of rat obtained in point 2.1 were used to evaluate the neuroprotective effect of the nanofibers of the invention.
The neuroprotective effect of the antioxidant mixture (AOX) was evaluated, for which the neurons obtained in point 2.1 were incubated for 24 hours in a medium supplemented with the mixture of antioxidants obtained in Example 1.1. Neuronal viability was compared to control (incubated with the vehicle without antioxidants) at concentrations of 0.001, 1, 10, 100, 150 and 200 μM of AOX, before and after the exposure of crops to a concentration of 50 μM of H2O2, during 1 h of incubation.
The neuroprotective effect of the nanofibers of the invention (NF) was evaluated, for which the neurons obtained in point 2.1 were incubated for 24 hours in a medium supplemented with the nanofibers of the invention obtained in Example 1.2. The neuronal viability compared to the control (incubated with the vehicle without nanofibers) was compared with nanofibers containing concentrations of 0.001, 1, 10, 100, 150 and 200 μM of AOX, before and after the exposure of crops to a concentration of 50 μM of H2O2, during 1 hour of incubation.

OO [H2O2, Hydrogen peroxide]
viability at 1 h, 10 μM (in vitro): 69.5% | viability at 1 h, 50 μM (in vitro): 44.3% | viability at 1 h, 100 μM (in vitro): 29.1% | viability at 1 h, 200 μM (in vitro): 19.6% | viability at 1 h, 500 μM (in vitro): 15.8% | viability at 1 h, 50 μM [1]: < 50%
